For 19 compounds, IC50 results are on record in patent US20240327382A1 (ALMAC DISCOVERY LIMITED, priority 2021, published 2024).

pIC50: −log10 of the molar value. Some results are limits rather than exact numbers.

The target in this assay is T1, Full-length USP19 (Homo sapiens, UniProt O94966).
T1 construct: Full-length USP19 was purchased from Boston Biochem (E-576); purchased Boston Biochem E-576
T1 sequence (O94966 1-1318): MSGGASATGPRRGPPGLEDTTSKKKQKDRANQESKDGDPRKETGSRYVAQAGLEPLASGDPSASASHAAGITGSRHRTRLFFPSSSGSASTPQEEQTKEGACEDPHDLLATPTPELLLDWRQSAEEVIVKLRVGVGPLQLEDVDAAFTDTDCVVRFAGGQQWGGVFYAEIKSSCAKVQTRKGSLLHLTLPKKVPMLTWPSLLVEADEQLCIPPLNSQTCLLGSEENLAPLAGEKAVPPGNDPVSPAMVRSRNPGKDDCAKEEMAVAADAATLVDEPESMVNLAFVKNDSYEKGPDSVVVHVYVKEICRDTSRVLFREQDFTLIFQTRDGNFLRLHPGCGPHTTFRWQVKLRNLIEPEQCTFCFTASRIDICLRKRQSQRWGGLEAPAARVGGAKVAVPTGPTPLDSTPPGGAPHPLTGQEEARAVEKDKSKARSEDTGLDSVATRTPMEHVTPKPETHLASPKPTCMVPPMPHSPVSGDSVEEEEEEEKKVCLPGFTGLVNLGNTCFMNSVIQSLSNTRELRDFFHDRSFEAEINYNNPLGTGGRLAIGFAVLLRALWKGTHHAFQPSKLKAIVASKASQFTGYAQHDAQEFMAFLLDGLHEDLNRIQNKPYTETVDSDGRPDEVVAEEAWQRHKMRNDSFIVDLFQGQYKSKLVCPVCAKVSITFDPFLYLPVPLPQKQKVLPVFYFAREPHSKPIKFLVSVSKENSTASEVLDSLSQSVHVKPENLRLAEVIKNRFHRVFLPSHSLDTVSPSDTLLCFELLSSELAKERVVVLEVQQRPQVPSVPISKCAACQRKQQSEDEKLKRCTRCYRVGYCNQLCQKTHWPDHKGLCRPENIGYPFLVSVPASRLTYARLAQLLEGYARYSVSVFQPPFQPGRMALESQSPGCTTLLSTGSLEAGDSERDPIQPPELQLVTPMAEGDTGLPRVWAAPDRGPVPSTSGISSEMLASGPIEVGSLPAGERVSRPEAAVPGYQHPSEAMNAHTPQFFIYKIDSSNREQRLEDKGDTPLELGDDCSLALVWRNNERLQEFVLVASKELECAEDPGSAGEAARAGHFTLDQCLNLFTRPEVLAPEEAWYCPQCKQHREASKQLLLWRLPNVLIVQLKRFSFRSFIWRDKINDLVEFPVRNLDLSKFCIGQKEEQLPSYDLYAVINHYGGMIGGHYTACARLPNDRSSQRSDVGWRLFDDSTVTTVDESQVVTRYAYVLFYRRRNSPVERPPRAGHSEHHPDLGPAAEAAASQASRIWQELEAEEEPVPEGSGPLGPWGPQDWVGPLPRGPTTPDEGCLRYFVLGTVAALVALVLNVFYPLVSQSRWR
As to the kind of experiment: USP19 fluorescence polarisation (FP) assay, Ubiquitin-Lys-TAMRA substrate. The format is biochemical. To be noted: average of at least two duplicate experiments. An outline of the steps:
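Fluorescence polarisation (excitation 530 nm, parallel and perpendicular emission at 575 nm) was recorded every 15 min for 90 min after adding the ubiquitin-Lys-TAMRA isopeptide (500 nM as dispensed). Beforehand, the full-length enzyme (2.5 nM as dispensed) sat 30 min at RT with compound diluted from 200 μM to 2 μM in HEPES pH 7.4 buffer with 150 mM NaCl, 5 mM DTT, 0.05% BSA and 0.05% CHAPS. Values normalised to uninhibited wells gave IC50s by non-linear fitting, each the mean of two or more duplicate runs.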

Turning to `N[C@@H]1CCN(C(=O)N2CC[C@@H](Cn3ccc(-c4ccccc4)cc3=O)C3(CCCC3)C2)[C@H](c2cccc(F)c2)C1` [Example 65, 1-(((R)-7-((2S,4R)-4-Amino-2-(3-fluorophenyl)piperidine-1-carbonyl)-7-azaspiro[4.5]decan-10-yl)methyl)-4-phenylpyridin-2(1H)-one], the negative-log IC50 (pIC50) is above 8.00.

Regarding `O=C(N1CC[C@@H](Cn2cnc(-c3ccccc3)cc2=O)C2(CCCC2)C1)N1CC[C@@H](NCc2ccccn2)C[C@H]1c1ccccc1` [Example 144, 6-Phenyl-3-(((R)-7-((2S,4R)-2-phenyl-4-((pyridin-2-ylmethyl)amino)piperidine-1-carbonyl)-7-azaspiro[4.5]decan-10-yl)methyl)pyrimidin-4(3H)-one], the pIC50 was above 8.00.

As to `COc1ccccc1-c1ccn(C[C@@H]2CCN(C(=O)N3CC[C@@H](N)C[C@H]3c3cccc(F)c3)CC23CCCC3)c(=O)c1` [Example 88, 1-(((R)-7-((2S,4R)-4-Amino-2-(3-fluorophenyl)piperidine-1-carbonyl)-7-azaspiro[4.5]decan-10-yl)methyl)-4-(2-methoxyphenyl)pyridin-2(1H)-one], the pIC50 is above 8.00. Regarding `N[C@@H]1CCN(C(=O)N2CCC(Cn3ccc(C(F)(F)F)cc3=O)C3(CCCC3)C2)[C@H](c2ccccc2)C1` (stereo partly drawn) [Example 43, 1-((7-((2S,4R)-4-Amino-2-phenylpiperidine-1-carbonyl)-7-azaspiro[4.5]decan-10-yl)methyl)-4-(trifluoromethyl) pyridin-2(1H)-one], the pIC50 was 7.00 to 8.00. Regarding `N[C@@H]1CCN(C(=O)N2CC[C@@H](Cn3ccc(Cl)cc3=O)C3(CCCC3)C2)[C@H](c2ccccc2)C1` [Example 67, 1-(((R)-7-((2S,4R)-4-Amino-2-phenylpiperidine-1-carbonyl)-7-azaspiro[4.5]decan-10-yl)methyl)-4-chloropyridin-2(1H)-one], the pIC50 is above 8.00. With `O=C(N1CC[C@@H](Cn2cnc(-c3ccccc3)cc2=O)C2(CCCC2)C1)N1CC[C@@H](NCCF)C[C@H]1c1cccc(F)c1` [Example 196, 3-(((R)-7-((2S,4R)-4-((2-Fluoroethyl)amino)-2-(3-fluorophenyl)piperidine-1-carbonyl)-7-azaspiro[4.5]decan-10-yl)methyl)-6-phenylpyrimidin-4(3H)-one], the pIC50 was above 8.00.

With `CN[C@@H]1CCN(C(=O)N2CC[C@@H](Cn3ccc(-c4ccccc4F)cc3=O)C3(CCCC3)C2)[C@H](c2ccccc2)C1` [Example 55, 4-(2-Fluorophenyl)-1-(((R)-7-((2S,4R)-4-(methylamino)-2-phenylpiperidine-1-carbonyl)-7-azaspiro[4.5]decan-10-yl)methyl)pyridin-2(1H)-one], the negative logarithm of the IC50 (pIC50) is above 8.00.

Turning to `COCCN[C@@H]1CCN(C(=O)N2CC[C@@H](Cn3cnc(-c4ccccc4)cc3=O)C3(CCCC3)C2)[C@H](c2cccc(F)c2)C1` [Example 195, 3-(((R)-7-((2S,4R)-2-(3-Fluorophenyl)-4-((2-methoxyethyl)amino)piperidine-1-carbonyl)-7-azaspiro[4.5]decan-10-yl)methyl)-6-phenylpyrimidin-4(3H)-one], the pIC50 was above 8.00. For `O=C(N1CC[C@@H](Cn2cnc(C(F)F)cc2=O)C2(CCCC2)C1)N1CC[C@@H](NC2CC(F)(F)C2)C[C@H]1c1cc(F)ccc1F` [Example 183, 3-(((R)-7-((2S,4R)-4-((3,3-Difluorocyclobutyl)amino)-2-(2,5-difluorophenyl)piperidine-1-carbonyl)-7-azaspiro[4.5]decan-10-yl)methyl)-6-(difluoromethyl)pyrimidin-4(3H)-one] the value was 7.00 to 8.00; for `CN[C@@H]1CCN(C(=O)N2CC[C@@H](Cn3ccc(-c4ccccc4)cc3=O)C3(CCCC3)C2)[C@H](c2ccc(F)cc2F)C1` [Example 95, 1-(((R)-7-((2S,4R)-2-(2,4-Difluorophenyl)-4-(methylamino)piperidine-1-carbonyl)-7-azaspiro[4.5]decan-10-yl)methyl)-4-phenylpyridin-2(1H)-one], above 8.00; for `N[C@H]1C[C@@H](c2ccccc2)N(C(=O)N2CC[C@@H](Cn3ccc(-c4ccccc4)cc3=O)C3(CCCC3)C2)C[C@H]1F` (racemic) [Example 85, 1-(((R)-7-((2S,4S,5R)-4-Amino-5-fluoro-2-phenylpiperidine-1-carbonyl)-7-azaspiro[4.5]decan-10-yl)methyl)-4-phenylpyridin-2(1H)-one and 1-(((R)-7-((2S,4S,5S)-4-Amino-5-fluoro-2-phenylpiperidine-1-carbonyl)-7-azaspiro[4.5]decan-10-yl)methyl)-4-phenylpyridin-2(1H)-one], above 8.00. For `O=C(N1CCC(Cn2ccc(-c3ccccc3)cc2=O)CC1)N1CCNC[C@H]1c1cc(F)ccc1F` [Example 22, (R)-1-((1-(2-(2,5-Difluorophenyl)piperazine-1-carbonyl)piperidin-4-yl)methyl)-4-phenylpyridin-2(1H)-one] the value was 7.00 to 8.00.

As for `O=C(N1CC[C@@H](Cn2cnc(-c3ccccc3)cc2=O)C2(CCCC2)C1)N1CC[C@@H](NC2CC2)C[C@H]1c1ccccc1` [Example 79, 3-(((R)-7-((2S,4R)-4-(Cyclopropylamino)-2-phenylpiperidine-1-carbonyl)-7-azaspiro[4.5]decan-10-yl)methyl)-6-phenylpyrimidin-4(3H)-one], the pIC50 was above 8.00. For `CN[C@@H]1CCN(C(=O)N2CC[C@@H](Cn3ccc(-c4ccccc4)cc3=O)C3(CCCC3)C2)[C@H](c2ccccc2)C1` [Example 48, 1-(((R)-7-((2S,4R)-4-(Methylamino)-2-phenylpiperidine-1-carbonyl)-7-azaspiro[4.5]decan-10-yl)methyl)-4-phenylpyridin-2(1H)-one] the value was above 8.00; for `N[C@@H]1CCN(C(=O)N2CCC(Cn3cnc(-c4ccccc4)cc3=O)CC2)[C@H](c2ccccc2)C1` [Example 9, 3-((1-((2S,4R)-4-Amino-2-phenylpiperidine-1-carbonyl)piperidin-4-yl)methyl)-6-phenylpyrimidin-4(3H)-one], 7.00 to 8.00. For `CN(C)[C@@H]1CCN(C(=O)N2CC[C@@H](Cn3cnc4ccc(F)cc4c3=O)C3(CCCC3)C2)[C@H](c2cc(F)ccc2F)C1` [Example 174, 3-(((R)-7-((2S,4R)-2-(2,5-Difluorophenyl)-4-(dimethylamino)piperidine-1-carbonyl)-7-azaspiro[4.5]decan-10-yl)methyl)-6-fluoroquinazolin-4(3H)-one] the value was above 8.00; for `CN(C)[C@@H]1CCN(C(=O)N2CC[C@@H](Cn3ccc(-c4ccccc4)cc3=O)C3(CCCC3)C2)[C@H](c2ccccc2)C1` [Example 46, 1-(((R)-7-((2S,4R)-4-(Dimethylamino)-2-phenylpiperidine-1-carbonyl)-7-azaspiro[4.5]decan-10-yl)methyl)-4-phenylpyridin-2(1H)-one], 7.00 to 8.00. With `O=C(N1CC[C@@H](Cn2cnc(-c3ccccc3)cc2=O)C2(CCCC2)C1)N1CC[C@@H](NCCO)C[C@H]1c1ccccc1` [Example 161, 3-(((R)-7-((2S,4R)-4-((2-Hydroxyethyl)amino)-2-phenylpiperidine-1-carbonyl)-7-azaspiro[4.5]decan-10-yl)methyl)-6-phenylpyrimidin-4(3H)-one], the pIC50 was above 8.00.

Take `COc1ccccc1-c1cc(=O)n(C[C@@H]2CCN(C(=O)N3CCNC[C@H]3c3cc(F)ccc3F)CC23CCCC3)cn1` [Example 116, 3-(((R)-7-((R)-2-(2,5-Difluorophenyl)piperazine-1-carbonyl)-7-azaspiro[4.5]decan-10-yl)methyl)-6-(2-methoxyphenyl)pyrimidin-4(3H)-one]: the pIC50 is above 8.00.
